The results in this text go back to the OPERA property sets (Mansouri et al. 2018).

As usually defined, the melting point is the temperature, or range, at which the solid turns liquid. As a reminder, the boiling point is the temperature of boiling at a given pressure. In general, logP refers to a log measure of how a compound divides between an organic and an aqueous phase. The low end stands for a more hydrophilic compound, the high end for a more lipophilic compound.

The compound `COc1cc(O)c2c(=O)c(-c3ccc(O)cc3)coc2c1` yielded a melting point of 240 °C.
`CN(C)CCCN1c2ccccc2Sc2ccc(Cl)cc21.Cl`: the melting point stood at 195 °C.
As for `FC(F)(Br)C(F)(F)C(F)(F)C(F)(F)Br`, the boiling point is 97 °C.
`CCCCCCCCCCCCCCCN` registered a boiling point of 308 °C and a melting point of 37.3 °C.
In turn, `c1ccc(-c2ccc3ncccc3c2)cc1` yielded a melting point of 110 °C.
`O=S(=O)(O)c1ccc(O)cc1`: the ready biodegradability result was “readily biodegradable”.
Consider `COC(=O)c1ccccc1C`, for which the boiling point was found to be 215 °C.
In turn, `C=Cc1ccc(N)cc1` came in with a melting point of 23.5 °C.
For the compound `CCCC/C=C\CCCCCCCCCC=O`, the boiling point amounted to 250 °C.
On the same count and under the same terms, the same measure for `CC1=CC(=O)CCC1(C)C`: 217 °C.
For `O=C(O)C=CC=Cc1ccc2c(c1)OCO2`, the melting point stood at 215 °C.
As to `C=CC(=O)OCC(CC)CCCC` (stereo unspecified), the boiling point stood at 214 °C, the log10 vapour pressure (mmHg) was -0.75, the melting point is -90 °C and the ready biodegradability entry was “readily biodegradable”.
Take `O=C(O)CC(O)(CC(=O)O)C(=O)O`: the log10 vapour pressure (mmHg) is -7.78, the melting point is 153 °C and the ready biodegradability result is “readily biodegradable”.
For the compound `CN1C(CSCC(F)(F)F)Nc2cc(Cl)c(S(N)(=O)=O)cc2S1(=O)=O` (stereo unspecified), the melting point came to 214 °C.
Same read-out and setting: the same measure for `CC(C)CCC[C@@H](C)[C@H]1CC[C@H]2[C@@H]3CC[C@@H]4C[C@H](O)CC[C@]4(C)[C@H]3CC[C@]12C`: 143 °C.
`CCN(CC)C(=S)SC(=S)N(CC)CC` had a melting point of 31 °C.
As for `CCCCCCCCCCOCCCCCCCCCC`, the ready biodegradability result is listed as “readily biodegradable”.
`Cn1c2ccccc2c2ccccc21` came in with a melting point of 89.3 °C.
In turn, `O=C(O)CC=Cc1ccccc1` showed a boiling point of 302 °C and a melting point of 87 °C.
Consider `O=C(Cl)C(c1ccccc1)c1ccccc1`, for which the melting point was 56.5 °C.
In turn, `COc1ccc(O[C@@H]2O[C@H](CO)[C@H](O)[C@H](O)[C@H]2O)cc1` gave a melting point of 159 °C.
`Cc1cc(C)c(Cl)c(O)c1Cl`: the melting point was determined as 87.5 °C.
`CC(F)=C(Cl)Cl` gave a boiling point of 78 °C.
`[C-]#[N+]C` yielded a boiling point of 59.6 °C and a melting point of -45 °C.
Regarding `CCCCC(C)=O`, the boiling point stood at 128 °C, the log10 Koa turned out to be 3.68, the log10 vapour pressure (mmHg) amounted to 1.06 and the melting point was -55.5 °C. The ready biodegradability entry was “not readily biodegradable”.
The compound `COC(OC)OC` showed a boiling point of 104 °C.
Compound `CCCNC(=O)NS(=O)(=O)c1ccc(Cl)cc1` had a melting point of 128 °C.
Consider `CCCCCCC1CCCCC1`, for which the boiling point amounted to 224 °C, the log10 vapour pressure (mmHg) is -0.943 and the melting point is -43 °C.
The compound `COc1ccc2c(C(=O)c3ccc(Cl)cc3)c(C)n(CC(=O)O)c2c1` returned a melting point of 242 °C.
`O=C(c1ccc(Cl)cc1)c1ccccc1Cl` yielded a melting point of 67 °C.
In turn, `CC1c2ccccc2-c2ccccc21` came in with a melting point of 46.5 °C.
As to `Cc1cc(C(C)(C)C)c(O)c(C(C)(C)C)c1`, the boiling point was 265 °C, the log10 vapour pressure (mmHg) was -2.29, the melting point amounted to 71 °C and the ready biodegradability entry is recorded as “readily biodegradable”.
`CCOC(=O)C=C(C)C(=O)OCC`: the boiling point is 228 °C.
Consider `CCCCCOC(=O)Nc1ccccc1`, for which the log10 Koc (L/kg) came to 2.61.
`CCOc1ccc(O)cc1` came in with a boiling point of 246 °C and a melting point of 66.5 °C.
`Cc1cccc(NC(=O)c2ccccc2C(=O)O)c1` returned a melting point of 150 °C.
`O=C(O)C1CC=CCC1C(=O)O` (stereo unspecified): the ready biodegradability entry is “not readily biodegradable”.
Regarding `CCCOCCO`, the boiling point amounted to 150 °C and the log10 vapour pressure (mmHg) came to 0.494.
For `CCC1CCCCN1C(=O)COC(=O)c1ccccc1` (stereo unspecified), the melting point is 54.5 °C.
Consider `CCC(C)(C)c1cc(C)cc(C(C)(C)CC)c1O`, for which the boiling point came to 283 °C.
The compound `Clc1ccc2oc3c(Cl)c(Cl)c(Cl)c(Cl)c3c2c1` showed a log10 vapour pressure (mmHg) of -8.44 and a melting point of 178 °C.
For `CCOc1ccc(Cl)cc1`, the boiling point came to 213 °C and the melting point was found to be 21 °C.
`Nc1cn[nH]c1` came in with a melting point of 81 °C.
For the compound `COc1cc(O)c(C(=O)c2ccccc2)cc1S(=O)(=O)O`, the melting point was found to be 145 °C.
The compound `CC(C(=O)O)(c1ccccc1)c1ccccc1` registered a melting point of 176 °C.
Still for that read-out and setting: the same measure for `O=C=Nc1ccccc1[N+](=O)[O-]`: 41 °C.
`C=C(C)C(=O)OCC(C)C` showed a boiling point of 155 °C and a log10 vapour pressure (mmHg) of 0.56.
For `C=CCCCCCCCCCO`, the boiling point was 250 °C and the melting point is -2 °C.
Compound `Nc1cccc2nsnc12` gave a melting point of 68 °C.
As for `C=CCCCCCCCCCCCCCCCCCC`, the boiling point came to 341 °C, the log10 vapour pressure (mmHg) was -4.98 and the melting point is 28.5 °C.
For the compound `O=Cc1ccc2ccccc2n1`, the melting point was found to be 71 °C.
For `CCCCCCCCCCCCCC`, the boiling point came out at 254 °C, the log10 biodegradation half-life (days) was determined as 1.36, the log10 vapour pressure (mmHg) is -1.94 and the melting point was determined as 5.8 °C. Also, the ready biodegradability result is recorded as “readily biodegradable”.
Compound `N=C(NCCCCCCNC(=N)NC(=N)Nc1ccc(Cl)cc1)NC(=N)Nc1ccc(Cl)cc1` came in with a melting point of 134 °C.
In turn, `C1CC2C3CCC(C3)C2C1` (stereo unspecified) had a log10 biodegradation half-life (days) of 3.
Regarding `O=C(O)CCCCc1ccccc1`, the melting point was found to be 57.5 °C.
Still for that read-out and setting: the same measure for `CCCOC(=O)CCCCC(=O)OCCC`: -15.7 °C.
In turn, `CCC(C)(CC)C(=O)O` gave a boiling point of 207 °C.
The compound `CCCCCCCCCCCCCCCCCCC1CCCCC1` came in with a boiling point of 409 °C and a melting point of 41.6 °C.
Consider `CCOC(=O)COc1ccc2c(=O)cc(-c3ccccc3)oc2c1`, for which the melting point was 124 °C.
Regarding `Brc1ccc(Oc2ccccc2Br)c(Br)c1`, the logP worked out at 5.74.
Turning to `CCCCCCCCCC(=O)N(CCO)CCO`, the ready biodegradability result was “readily biodegradable”.
